Experimental data from US7842488B2, “Polynucleotides encoding a human 3-phosphoinositide- dependent protein kinase” (Medical Research Council, priority 1997, dated 2010).
“Also recorded” adds a separate entry of the source.

Columns and labels:
[1] = tested on: PDK1; experiment: Endogenous PDK1 activity in lysates of IGF1-stimulated 293 cells; assay type: cell-based, human; conditions: up to 10 min
Description: PDK1 is not activated or phosphorylated by IGF1. 293 cells were serum starved for 16 h, stimulated with IGF1 lysed and the endogenous PDK1 activity present in the cell lysates was determined after chromatography on heparin-Sepharose (see Methods).

[2] = tested on: HA-PKBα; experiment: HA-PKBα activity in transfected 293 cells; assay type: cell-based, human
Description: FIG. 14. PKBα is activated by cotransfection with PDK1 in 293 cells. (A) 293 cells were transiently transfected with DNA constructs expressing either HA-PKBα or both HA-PKBα and Myc-PDK1. The cells were then stimulated for 10 min with or without 50 ng/ml IGF1, the HA-PKBα immunoprecipitated from the lysates and assayed. The results are expressed relative to the specific activity of wild type HA-PKBα in unstimulated 293 cells ([…]). No PKBα activity was detected in mock transfections in which the cells were transfected with PCMV5 vector alone (data not shown). (B) 6 μg of protein from each lysate was electrophoresed on a 10% SDS/polyacrylamide gel and immunoblotted using either a monoclonal HA-antibody to detect HA-PKBα or a monoclonal Myc-antibody to detect Myc-PDK1. The molecular mass markers are glycogen phosphorylase (97 kDa), bovine serum albumin (67 kDa) and ovalbumin (43 kDa).
Transfection of 293 cells with HA-tagged PBKα and Myc-PDK1. Human embryonic kidney 293 cells were cultured on 10 cm diameter dishes and transfected with 2 μg/ml pCMV5 DNA constructs encoding for HA-PKBα or HA-PKBα plus Myc-PDK1 [20]. After 24 h the cells were deprived of serum for a further 16 h and then stimulated for 10 min with either […] IGF1 or Buffer. The cells were lysed in 1.0 ml of ice-cold Buffer A, the lysate centrifuged at 4° C. for 10 min at 13,000×g and HA-PKBα immunoprecipitated from aliquots of the supernatant (10 μg protein) and assayed for PKBα with the peptide RPRAATF (SEQ ID NO: 9) as described previously.

[3] = tested on: HA-PKBα; experiment: 32P-labelling of transfected 293 cells: phosphorylation sites of HA-PKBα; assay type: cell-based, human; conditions: 293 cells cotransfected with PDK1
Description: FIG. 15. Overexpression of PDK1 in cells induces phosphorylation of PKBα at Thr308. 293 cells transiently transfected with either wild type HA-PKBα (panels A and C) or HA-PKBα and Myc-PDK1 (panels B and D) were incubated with ^32P-orthophosphate, then treated for 10 min without (panels A and B) or with (panels C and D) 50 ng/ml IGF1. The ^32P-labelled HA-PKBα was immunoprecipitated from the lysates, treated with 4-vinylpyridine, and electrophoresed on 1 10% polyacrylamide gel. The HA-PKBα was excised from the gel, digested with trypsin and chromatographed on a C18 column (see legend to FIG. 13) to resolve the four major phosphopeptides which are phosphorylated at Ser-124, Ser473, Thr308 and Thr450 respectively. The identity of each phosphopeptide was established by phospho-amino acid analysis and solid phase sequencing. Similar results were obtained in two separate experiments for (panels A and C), and in three separate experiments (panels B and D).
(§1) ^32P-labelling of 293 cells transfected with HA-PKBα or Myc-PDK1. This was carried out essentially as described previously. Briefly, 293 cells were transfected with HA-PKBα, or with HA-PKBα plus Myc-PDK1, washed with phosphate free DMEM, incubated for 4 h with [^32P]-orthophosphate (1 mCi/ml), then stimulated with IGF1 (50 ng/ml) for 5 min. The cells were lysed, and the HA-PKBα immunoprecipitated (using 10 μg of 12CAS antibody per 10 cm dish of cells) or the Myc-PDK1 immunoprecipitated (using 10 μg of 9E10 antibody per 10 cm dish of cells). The immunoprecipitated protein was alkylated with 4-vinylpyridine, subjected to SDS/polyacrylamide gel electrophoresis, digested with trypsin and analysed by chromatography on a C18 column (Alessi et al (1996) EMBO J. 15, 6541-6551).

[4] = tested on: GST-PKBα; experiment: Activation of GST-PKBα after stimulation of transfected 293 cells; assay type: cell-based, human; conditions: versus unstimulated 293 cells
From the text: Expression of GST-PKBα in 293 cells. The DNA sequence encoding PKBα was subcloned into the eukaryotic expression vector PEBG2T that has been used to overexpress GST-fusion proteins in eukaryotic cells under an EF1α promoter. A PCR reaction was set up to generate a full length cDNA encoding the PKBα gene with a BamH1site at the 5′ end of the cDNA that is in frame with the GST sequence of the PEBG2T vector and the ATG initiation codon of PKBα, and a KpnI site at the 3′ end, using the human PCMV5-HA-PKBα plasmid. The DNA sequence of the BamH1/KpnI cDNA fragment was checked and then subcloned into the unique BamH1/KpnI restriction sites on the pEBG 2T expression vector. In order to prepare GST-PKBα, 40, 10 cm diameter dishes of human embryonic kidney 293 cells were cultured and each dish transfected with 20 μg of GST PKBα expression construct using the modified calcium phosphate method described previously for overexpression of haemaglutinin tagged PKBα in 293 cells. […]

[5] = tested on: Myc-PDK1; experiment: 32P-labelling of 293 cells: phosphorylation of Myc-PDK1; assay type: cell-based, human; conditions: 5 min
Description: as §1
In order to see if IGF1 stimulation was inducing the phosphorylation of PDK1, 293 cells were transfected with Myc-PDK1 (encoding residues 52 to 556), incubated with ^32P-phosphate, stimulated with buffer or IGF1 for 5 min and ^32P-labelled Myc-PDK1 was immunoprecipitated from the lysates. After digestion with trypsin, the resulting peptides were analysed by C18 chromatography. […] One of the in vivo phosphorylation sites on PDK1 was identified as Ser-241 which lies in the equivalent position to Thr308 of PKB in the kinase domain.

[6] = molecular target: T1, PDK1 (Homo sapiens, UniProt O15530); experiment: Direct binding of PtdIns(3,4,5)P3 to PDK1
T1 sequence (O15530 1-556): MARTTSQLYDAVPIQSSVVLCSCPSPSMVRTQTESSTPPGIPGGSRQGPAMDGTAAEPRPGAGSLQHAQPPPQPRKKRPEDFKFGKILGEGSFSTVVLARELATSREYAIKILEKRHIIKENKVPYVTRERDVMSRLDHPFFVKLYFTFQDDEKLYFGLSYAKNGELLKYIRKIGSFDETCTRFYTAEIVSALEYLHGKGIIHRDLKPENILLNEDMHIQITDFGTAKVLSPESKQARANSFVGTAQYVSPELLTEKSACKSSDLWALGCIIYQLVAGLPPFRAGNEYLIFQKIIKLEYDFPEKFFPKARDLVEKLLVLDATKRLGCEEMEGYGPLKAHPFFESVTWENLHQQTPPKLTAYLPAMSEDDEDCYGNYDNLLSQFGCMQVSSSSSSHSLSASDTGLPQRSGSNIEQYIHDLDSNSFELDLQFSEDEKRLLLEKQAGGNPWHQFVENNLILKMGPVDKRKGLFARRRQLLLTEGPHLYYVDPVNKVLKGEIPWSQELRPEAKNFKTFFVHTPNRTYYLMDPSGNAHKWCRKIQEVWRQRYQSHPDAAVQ

[7] = molecular target: T2, GST-DSTPK61 (Drosophila melanogaster, UniProt Q9W0V1); experiment: GST-DSTPK61 assay: activation and phosphorylation of GST-PKBα; assay type: biochemical; conditions: lipid 10 μM in PtdCho/PtdSer vesicles
T2 construct: residues 1-752 of DSTPK61 in E. coli as fusion proteins; made in house; host or cells: E. coli (pGEX-3X)
Description: (§2) FIG. 12. […] In panels A and C, the assays were terminated by making the incubations 1% (by vol) in TRITON X-100™ (see Ref 21), and the increase in specific activity of GST-PKBα was determined. In panels B and D, the reactions were terminated by making the solutions 1% in SDS, the samples were subjected to SDS/polyacrylamide gel electrophoresis, and the phosphorylation was assessed by autoradiography of the Coomassie blue-stained band corresponding to GST-PKBα.
(§3) One unit of PDK1 activity was defined as that amount required to increase the basal activity of GST-PKBα by 1 unit of activity in one min.

[8] = molecular target: T3, GST-PDK1 (Homo sapiens, UniProt O15530); experiment: GST-PDK1 assay: activation and phosphorylation of GST-PKBα; assay type: biochemical; conditions: lipid 10 μM in PtdCho/PtdSer vesicles
T3 construct: Residues 52-556 of PDK1 were expressed in human embryonic kidney 293 cells; made in house; host or cells: human embryonic kidney 293 cells (pEBG2T)
T3 sequence (O15530 52-556): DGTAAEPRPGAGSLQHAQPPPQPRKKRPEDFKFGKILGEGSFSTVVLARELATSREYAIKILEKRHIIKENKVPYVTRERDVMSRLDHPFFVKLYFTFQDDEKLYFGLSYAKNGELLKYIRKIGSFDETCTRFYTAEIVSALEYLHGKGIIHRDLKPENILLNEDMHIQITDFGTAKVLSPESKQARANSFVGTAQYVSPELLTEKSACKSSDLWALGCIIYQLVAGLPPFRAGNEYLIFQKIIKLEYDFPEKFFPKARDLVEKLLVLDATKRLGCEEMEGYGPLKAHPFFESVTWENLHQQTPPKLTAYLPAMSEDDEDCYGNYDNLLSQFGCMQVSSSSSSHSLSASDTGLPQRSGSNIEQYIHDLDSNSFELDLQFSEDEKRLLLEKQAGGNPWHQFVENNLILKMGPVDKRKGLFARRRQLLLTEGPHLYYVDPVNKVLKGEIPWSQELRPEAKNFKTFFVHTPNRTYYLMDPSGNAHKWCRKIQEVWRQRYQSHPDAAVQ
Description: as §2, §3

[9] = tested on: PDK1; experiment: PDK1 assay: activation of GST-PKBα by purified PDK1 with phospholipid vesicles; assay type: biochemical, rabbit; conditions: lipid 10 μM in vesicles of 100 μM PtdCho, 100 μM PtdSer; 30 min at 30° C.
How it was run: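 Two-stage assay: GST-PKBα incubated with PDK1, MgATP and phospholipid vesicles to allow activation. Reactions run 10 min at 30 °C, stopped on p81 phosphocellulose paper and washed in phosphoric acid. Basal GST-PKBα activity measured without PDK1.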

T2 sequence (Q9W0V1 85-836 Q200H/Q201E/Q317A/G443R): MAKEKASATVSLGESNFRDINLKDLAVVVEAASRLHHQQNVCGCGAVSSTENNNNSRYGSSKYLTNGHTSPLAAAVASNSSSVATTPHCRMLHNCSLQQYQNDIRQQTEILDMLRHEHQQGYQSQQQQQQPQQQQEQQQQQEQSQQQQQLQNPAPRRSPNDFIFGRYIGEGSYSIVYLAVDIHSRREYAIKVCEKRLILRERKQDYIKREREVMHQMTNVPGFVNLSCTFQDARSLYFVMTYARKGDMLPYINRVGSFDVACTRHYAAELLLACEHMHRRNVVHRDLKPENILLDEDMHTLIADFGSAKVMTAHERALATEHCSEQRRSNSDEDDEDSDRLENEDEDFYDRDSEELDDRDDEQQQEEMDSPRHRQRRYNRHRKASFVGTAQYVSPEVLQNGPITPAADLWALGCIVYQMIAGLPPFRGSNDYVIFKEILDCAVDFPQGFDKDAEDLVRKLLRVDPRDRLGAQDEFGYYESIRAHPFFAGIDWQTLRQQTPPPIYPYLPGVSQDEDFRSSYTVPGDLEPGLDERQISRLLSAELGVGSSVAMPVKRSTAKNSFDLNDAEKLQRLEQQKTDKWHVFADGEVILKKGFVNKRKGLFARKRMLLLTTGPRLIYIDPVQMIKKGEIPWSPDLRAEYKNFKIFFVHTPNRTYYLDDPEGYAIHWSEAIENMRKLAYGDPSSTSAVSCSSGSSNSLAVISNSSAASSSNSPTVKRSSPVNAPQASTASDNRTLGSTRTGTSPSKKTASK

| Substance | endogenous PDK1 activity after stimulation of 293 cells [1] | fold increase of HA-PKBα activity after stimulation ([2]; 293 cells transfected with HA-PKBα alone, 10 min) | fold increase of HA-PKBα activity after stimulation ([2]; 293 cells transfected with both HA-PKBα and Myc-PDK1) | further fold increase of Thr308 phosphorylation of HA-PKBα [3] | fold activation of GST-PKBα after stimulation of 293 cells [4] | phosphorylation of Myc-PDK1 tryptic peptides after stimulation of 293 cells [5] | binding to PDK1 (in words) [6] | activation and phosphorylation of GST-PKBα by GST-DSTPK61 (in words) [7] | activation and phosphorylation of GST-PKBα by GST-PDK1 (in words) [8] | activation of PDK1 (in words) [9] |
| --- | --- | --- | --- | --- | --- | --- | --- | --- | --- | --- |
| IGF1: growth factor IGF1 used to stimulate 293 cells | did not result in any activation or inhibition; also recorded: did not affect | 40 fold | 70 fold | 4 fold | 45 fold | does not alter the phosphorylation; also recorded: did not affect |  |  |  |  |
| Phosphatidylinositol 3,4,5-tris phosphate [PtdIns(3,4,5)P3] |  |  |  |  |  |  | bind PtdIns(3,4,5)P3 directly | activated and phosphorylated GST-PKBα | activated and phosphorylated GST-PKBα | only active in the presence of low micromolar concentrations |
